Drawing on US12522612B2, “PDE4 inhibitors, pharmaceutical compositions, and therapeutic applications” (BioTheryX, Inc., priority 2019, dated 2026), this text covers inhibition for 16 compounds.

This test relates to TNF-α. The test can be described thus: Cell-based TNF-α inhibition assay in LPS-induced PBMCs (Meso Scale). To be noted: PBMC, PBMCs pretreated 1 h, LPS 100 ng/mL 18-24 h, relative to stimulated DMSO control; for inhibition at 0.1 µM: compound concentration 0.1 μM; for inhibition at 1 µM: compound concentration 1 μM. Here is the method:
Frozen primary blood mononuclear cells (PBMCs) were quick thawed, washed once with RPMI 1640 media supplemented with 10% fetal bovine serum, 1% penicillin, and 1% streptomycin, and plated in a 96 well plate at 200,000 cells per well. The cells were pretreated with DMSO only as a control or a compound for 1 h, and then induced with LPS (lipopolysaccharide) (100 ng/mL) for 18-24 h. The supernatant was analyzed for TNF-α using the Meso Scale assay. Compound activity was determined as a percentage of the stimulated DMSO control. The results are summarized in Table 1, where A represents a percent inhibition value ≥60%; B represents a percent inhibition value <60% and ≥40%; C represents a percent inhibition value <40% and >20%; and D represents a single percent inhibition value <20%.

Each structure is given as a SMILES string.

For orientation: inhibition means the share of the control response that was lost under treatment. With `O=C1CCC(N2Cc3cc(C4CCN(CCCCCCCOc5cc(C(=O)Nc6c(Cl)cncc6Cl)ccc5OC(F)F)CC4)c(F)cc3C2=O)C(=O)N1` (stereo not shown) [Compound B61, N-(3,5-Dichloropyridin-4-yl)-4-(difluoromethoxy)-3-((7-(4-(2-(2,6-dioxopiperidin-3-yl)-6-fluoro-1-oxoisoindolin-5-yl)piperidin-1-yl)heptyl)oxy)benzamide], the inhibition at 0.1 µM was at least 60% and the inhibition at 1 µM was at least 60%.

Take `O=C1CC(c2ccc(OCCCCCCCN3CCC(c4cc(F)cc5c4CN(C4CCC(=O)NC4=O)C5=O)CC3)c(OC3CCCC3)c2)CN1` (stereo not shown) [Compound B57, 3-(4-(1-(7-(2-(Cyclopentyloxy)-4-(5-oxopyrrolidin-3-yl)phenoxy)heptyl)piperidin-4-yl)-6-fluoro-1-oxoisoindolin-2-yl)piperidine-2,6-dione]: the inhibition at 1 µM was below 20%.

As for `CCOc1cc([C@@H](CS(C)(=O)=O)N2Cc3c(NC(=O)COC)csc3C2=O)ccc1OC` [Compound A2, (S)—N-(5-(1-(3-ethoxy-4-methoxyphenyl)-2-(methylsulfonyl)ethyl)-6-oxo-5,6-dihydro-4H-thieno[2,3-c]pyrrol-3-yl)-2-methoxyacetamide], the inhibition at 0.1 µM lay in the range of 20 to 40% and the inhibition at 1 µM was in the range of 20 to 40%.

For the compound `COc1ccc(N2Cc3sccc3C2=O)cc1OCCCCCCCN1CCC(c2cc(F)cc3c2CN(C2CCC(=O)NC2=O)C3=O)CC1` (stereo not shown) [Compound B80, 3-(6-Fluoro-4-(1-(7-(2-methoxy-5-(4-oxo-4,6-dihydro-5H-thieno[2,3-c]pyrrol-5-yl)phenoxy)heptyl)piperidin-4-yl)-1-oxoisoindolin-2-yl)piperidine-2,6-dione], the inhibition at 1 µM is at least 60%.

Turning to `COc1ccc(N2C(=O)c3ccc(NCCCCCCCN4CCC(c5cc(F)cc6c5CN(C5CCC(=O)NC5=O)C6=O)CC4)cc3C2=O)cc1OC1CCCC1` (stereo not shown) [Compound B54, 2-(3-(Cyclopentyloxy)-4-methoxyphenyl)-5-((7-(4-(2-(2,6-dioxopiperidin-3-yl)-6-fluoro-1-oxoisoindolin-4-yl)piperidin-1-yl)heptyl)amino)isoindoline-1,3-dione], the inhibition at 1 µM lay in the range of 20 to 40%.

For `COc1ccc(N2Cc3ccc(N)cc3C2=O)cc1OCCCCCCCN1CCC(c2cc(F)cc3c2CN(C2CCC(=O)NC2=O)C3=O)CC1` (stereo not shown) [Compound B60, 3-(4-(1-(7-(5-(6-Amino-1-oxoisoindolin-2-yl)-2-methoxyphenoxy)heptyl)piperidin-4-yl)-6-fluoro-1-oxoisoindolin-2-yl)piperidine-2,6-dione], the inhibition at 1 µM is 20 to 40%.

`COc1ccc(N2Cc3ccc(NCCCCCCCN4CCC(c5cc(F)cc6c5CN(C5CCC(=O)NC5=O)C6=O)CC4)cc3C2=O)cc1OC1CCCC1` (stereo not shown) [Compound B56, 3-(4-(1-(7-((2-(3-(Cyclopentyloxy)-4-methoxyphenyl)-3-oxoisoindolin-5-yl)amino)heptyl)piperidin-4-yl)-6-fluoro-1-oxoisoindolin-2-yl)piperidine-2,6-dione]: the inhibition at 1 µM was in the range of 40 to 60%.

Take `CCOc1cc([C@@H](CS(C)(=O)=O)N2C(=O)c3cccc(NC(=O)COCCOCCOCCOCCNc4cccc5c4C(=O)N(C4CCC(=O)NC4=O)C5=O)c3C2=O)ccc1OC` (stereo partly drawn) [Compound B48, 14-((2-(2,6-Dioxopiperidin-3-yl)-1,3-dioxoisoindolin-4-yl)amino)-N-(2-((S)-1-(3-ethoxy-4-methoxyphenyl)-2-(methylsulfonyl)ethyl)-1,3-dioxoisoindolin-4-yl)-3,6,9,12-tetraoxatetradecan-1-amide]: the inhibition at 1 µM was at least 60%.

For `CCOc1cc([C@@H](CS(C)(=O)=O)N2C(=O)c3cccc(NC(=O)CCCCNCc4ccc(OCc5scc6c5CN(C5CCC(=O)NC5=O)C6=O)cc4)c3C2=O)ccc1OC` (stereo partly drawn) [Compound B78, 5-((4-((5-(2,6-Dioxopiperidin-3-yl)-4-oxo-5,6-dihydro-4H-thieno[3,4-c]pyrrol-1-yl)methoxy)benzyl)amino)-N-(2-((S)-1-(3-ethoxy-4-methoxyphenyl)-2-(methylsulfonyl)ethyl)-1,3-dioxoisoindolin-4-yl)pentanamide], the inhibition at 1 µM is at least 60%.

For `O=C1CCC(N2C(=O)c3cccc(NCCCCCCCOc4cc(C(=O)Nc5c(Cl)cncc5Cl)ccc4OC(F)F)c3C2=O)C(=O)N1` (stereo not shown) [Compound B72, N-(3,5-Dichloropyridin-4-yl)-4-(difluoromethoxy)-3-((7-((2-(2,6-dioxopiperidin-3-yl)-1,3-dioxoisoindolin-4-yl)amino)heptyl)oxy)benzamide], the inhibition at 0.1 µM is at least 60% and the inhibition at 1 µM was at least 60%.

For `O=C1CCC(N2Cc3c(cc(F)cc3C3CCN(CCCCCCCOc4ccc(N5C(=O)c6ccccc6C5=O)cc4OC4CCCC4)CC3)C2=O)C(=O)N1` (stereo not shown) [Compound B59, 2-(3-(Cyclopentyloxy)-4-((7-(4-(2-(2,6-dioxopiperidin-3-yl)-6-fluoro-1-oxoisoindolin-4-yl)piperidin-1-yl)heptyl)oxy)phenyl)isoindoline-1,3-dione], the inhibition at 1 µM was below 20%.

For the compound `COc1ccc([C@H](CS(C)(=O)=O)N2C(=O)c3csc(NC(C)=O)c3C2=O)cc1OC1CC1` [Compound A5, (R)—N-(5-(1-(3-cyclopropoxy-4-methoxyphenyl)-2-(methylsulfonyl)ethyl)-4,6-dioxo-5,6-dihydro-4H-thieno[3,4-c]pyrrol-1-yl)acetamide], the inhibition at 0.1 µM is below 20% and the inhibition at 1 µM was 20 to 40%.

As to `Nc1ccc2c(c1)C(=O)N(c1ccc(OCCCCCCCN3CCC(c4cc(F)cc5c4CN(C4CCC(=O)NC4=O)C5=O)CC3)c(OC3CCCC3)c1)C2=O` (stereo not shown) [Compound B58, 5-Amino-2-(3-(cyclopentyloxy)-4-((7-(4-(2-(2,6-dioxopiperidin-3-yl)-6-fluoro-1-oxoisoindolin-4-yl)piperidin-1-yl)heptyl)oxy)phenyl)isoindoline-1,3-dione], the inhibition at 1 µM is below 20%.

`COc1ccc(C2CNC(=O)C2)cc1OCCCCCCCCC(=O)N[C@H](C(=O)N1C[C@H](O)C[C@H]1C(=O)NCc1ccc(-c2scnc2C)cc1)C(C)(C)C` (stereo partly drawn) [Compound B67, (2S,4R)-4-Hydroxy-1-((2S)-2-(9-(2-methoxy-5-(5-oxopyrrolidin-3-yl)phenoxy)-nonanamido)-3,3-dimethylbutanoyl)-N-(4-(4-methylthiazol-5-yl)benzyl)pyrrolidine-2-carboxamide]: the inhibition at 1 µM was at least 60%.

For `CCOc1cc([C@@H](CS(C)(=O)=O)N2Cc3c(NC(=O)C4CC4)csc3C2=O)ccc1OC` [Compound A3, (S)—N-(5-(1-(3-ethoxy-4-methoxyphenyl)-2-(methylsulfonyl)ethyl)-6-oxo-5,6-dihydro-4H-thieno[2,3-c]pyrrol-3-yl)cyclopropanecarboxamide], the inhibition at 0.1 µM lay in the range of 20 to 40% and the inhibition at 1 µM was 20 to 40%.

As to `CCOc1cc([C@@H](CS(C)(=O)=O)N2Cc3c(csc3NC(=O)C(F)(F)F)C2=O)ccc1OC` [Compound A1, (S)—N-(5-(1-(3-ethoxy-4-methoxyphenyl)-2-(methylsulfonyl)ethyl)-4-oxo-5,6-dihydro-4H-thieno[3,4-c]pyrrol-1-yl)-2,2,2-trifluoroacetamide], the inhibition at 0.1 µM was below 20% and the inhibition at 1 µM lay in the range of 40 to 60%.
